Read-outs that look alike come from different tables or passages of the source.
Tests used:
rat [1] = system: rat
Procedure: Intrathecal catheters were surgically implanted in the rats after application of anesthetic (Nembutal, 30 mg/kg, intraperitoneal) 5-7 days prior to the test procedure. The 5-7 day period prior to testing allowed for full recovery from the surgical procedures. […] Each catheter was anchored to the skull with cyanoacrylate adhesive, and the skull was closed with wound clips. The free end of each catheter was heat annealed; when compositions were to be injected via the intrathecal route each composition was introduced therein using a Hamilton needle inserted into the sealed catheter.
Pain sensitivity was assessed using a standard analgesiometric hot plate test (Woolfe and MacDonald (1944) J. Pharmacol. Exp. Ther. 80:300). The hot plate response was determined by placing a rat on a 55° C. copper hot plate enclosed in a plexiglass cylinder.
Because of the technical demands of these experiments, no more than 8-9 rats were tested on a given day. Sufficient animals were studied to obtain 10-11 evaluable rats per test condition. On the study day, animals were tested for baseline hot plate responses, and then received bolus injections of test analgesic or physiological saline (control). Hot plate responses were assessed again at 15 min, 30 min, 1 hr, 3 hr, 6 hr and 24 hr after intrathecal injection of test compound or vehicle control.
Ninety-six (96) rats, ranging in weight from 320 g to 420 g, were used in this study. Catheters were implanted and recovery was allowed for as described hereinabove. […] Drug or saline vehicle doses were administered using Hamilton needles inserted into the catheters, with a dose volumes of 37.5 μL/kg followed by a 10 μL saline catheter wash-out. Baseline (pre-drug) and responses at 15 min, 30 min, 1 hr, 3 hr, 6 hr and 24 hr after drug or vehicle injection were determined.

rat [2] = assay: Rat hot plate test, 10 single daily intrathecal doses of elcatonin over 11 days (Example 12); format: in vivo; conditions: 4.4 IU/kg intrathecal, 10 daily doses in two 5 day phases (FIG. 8)
Procedure: Intrathecal catheters were implanted in rats as described hereinabove, and a 7-10 day period thereafter allowed for full recovery from the surgical procedures. Nine rats were assigned to three treatment groups of three rats per group. The study is conducted in two 5 day treatment phases separated by a 48 hour nontreatment interval. Treatment Group I rats receive no treatment (sham injection). In each treatment phase, Group II rats received five consecutive daily intrathecal doses of sterile physiological saline (vehicle control), for a total of 10 injections per study treatment.
For each treatment, hot plate latencies are determined as described in Example 5 hereinabove at 0 minutes (predose, baseline), 1 hour, 3 hours, and 24 hours following injection on the 1st, 3rd, 5th, 7th, 9th and 11th study days (Table 4).

rat [3] = assay: Rat hot plate test, single intravenous elcatonin (Example 10); format: in vivo
Procedure: A total of 24 rats, ranging in weight from 320 to 420 g, was used in this study. Four to eight rats were used for each dose level. […] The doses used were 10, 30, 100 and 300 IU/kg (1.61, 4.83, 16.1 and 48.3 μg/kg, respectively).

[4] = intrathecal, 30 min post-injection

“[Des-Cys^1,ASU^7 ]-Calcitonin, Eel [Elcatonin]” was tested, and the “Hot Plate Latency (Mean ± SEM)” value (rat [1]; 4.4 IU/kg ([…], 0.22 nmol/kg) intrathecal single, 0.25 hr) was 21.89 ± 3.12 s, the “Hot Plate Latency (Mean ± SEM)” value (rat [1]; 4.4 IU/kg ([…], 0.22 nmol/kg) intrathecal single, 0.5 hr) was 26.03 ± 3.36 s and the “Hot Plate Latency (Mean ± SEM)” value (rat [1]; 4.4 IU/kg ([…], 0.22 nmol/kg) intrathecal single, 1 hr) was 26.20 ± 2.37 s. For the same substance, the “Hot Plate Latency (Mean ± SEM)” value (rat [1]; 4.4 IU/kg ([…], 0.22 nmol/kg) intrathecal single, 3 hr) was 21.11 ± 2.18 s, the “Hot Plate Latency (Mean ± SEM)” value (rat [1]; 4.4 IU/kg ([…], 0.22 nmol/kg) intrathecal single, 6 hr) was 20.02 s and the “Hot Plate Latency (Mean ± SEM)” value (rat [1]; 4.4 IU/kg ([…], 0.22 nmol/kg) intrathecal single, 24 hr) was 11.78 ± 1.75 s. The “Hot Plate Latency (Mean ± SEM)” value (rat [1]; 5.2 IU/kg (0.84 μg/kg, 0.26 nmol/kg) intrathecal single, 0 hr (baseline)) was 13.41 ± 0.92 s, the “Hot Plate Latency (Mean ± SEM)” value (rat [1]; 5.2 IU/kg (0.84 μg/kg, 0.26 nmol/kg) intrathecal single, 0.25 hr) was 27.89 ± 3.10 s and the “Hot Plate Latency (Mean ± SEM)” value (rat [1]; 5.2 IU/kg (0.84 μg/kg, 0.26 nmol/kg) intrathecal single, 0.5 hr) was 31.55 ± 4.17 s. For the same substance, the “Hot Plate Latency (Mean ± SEM)” value (rat [1]; 5.2 IU/kg (0.84 μg/kg, 0.26 nmol/kg) intrathecal single, 1 hr) was 25.82 ± 3.79 s, the “Hot Plate Latency (Mean ± SEM)” value (rat [1]; 5.2 IU/kg (0.84 μg/kg, 0.26 nmol/kg) intrathecal single, 3 hr) was 28.81 ± 3.41 s and the “Hot Plate Latency (Mean ± SEM)” value (rat [1]; 5.2 IU/kg (0.84 μg/kg, 0.26 nmol/kg) intrathecal single, 6 hr) was 22.97 s. The “Hot Plate Latency (Mean ± SEM)” value (rat [1]; 5.2 IU/kg (0.84 μg/kg, 0.26 nmol/kg) intrathecal single, 24 hr) was 12.36 ± 1.69 s, the “Hot Plate Latency (Mean ± SEM)” value (rat [1]; 6.0 IU/kg (0.97 μg/kg, 0.30 nmol/kg) intrathecal single, 0 hr (baseline)) was 11.38 ± 0.89 s and the “Hot Plate Latency (Mean ± SEM)” value (rat [1]; 6.0 IU/kg (0.97 μg/kg, 0.30 nmol/kg) intrathecal single, 0.25 hr) was 25.22 ± 4.13 s. The “Hot Plate Latency (Mean ± SEM)” value (rat [1]; 6.0 IU/kg (0.97 μg/kg, 0.30 nmol/kg) intrathecal single, 0.5 hr) was 28.91 ± 3.40 s, the “Hot Plate Latency (Mean ± SEM)” value (rat [1]; 6.0 IU/kg (0.97 μg/kg, 0.30 nmol/kg) intrathecal single, 1 hr) was 24.48 ± 3.35 s and the “Hot Plate Latency (Mean ± SEM)” value (rat [1]; 6.0 IU/kg (0.97 μg/kg, 0.30 nmol/kg) intrathecal single, 3 hr) was 26.60 ± 3.87 s. For the same substance, the “Hot Plate Latency (Mean ± SEM)” value (rat [1]; 6.0 IU/kg (0.97 μg/kg, 0.30 nmol/kg) intrathecal single, 6 hr) was 24.69 s, the “Hot Plate Latency (Mean ± SEM)” value (rat [1]; 6.0 IU/kg (0.97 μg/kg, 0.30 nmol/kg) intrathecal single, 24 hr) was 11.17 ± 1.80 s and the “hot plate analgesia compared with morphine sulfate (49.42-164.73 nmol/kg)” value (rat [1]; 6 hours post-injection, all tested doses of elcatonin (0.12-0.30 nmol/kg)) was “more potent hot plate analgesia than all tested doses of morphine sulfate”. The “duration of analgesia, elcatonin compared with morphine” value (rat [1]; intrathecal) was “generally longer duration of analgesic activity than morphine”, the “molar concentration producing potent analgesia, lower than morphine sulfate by” value (rat [1]; intrathecal) was “approximately 1000 fold” and the “dose approximately equivalent to 164.73 nmol/kg morphine sulfate (125.0 μg/kg)” value (rat [1]; [4]) was roughly 0.18 nmol/kg. For the same substance, the “dose producing a hot plate latency similar to 98.84 nmol/kg morphine sulfate (75.0 μg/kg)” value (rat [1]; [4]) was roughly 0.12 nmol/kg, the “onset of antinociception/analgesia post-injection” value (rat [1]; intrathecal, all tested doses) was no more than 15 min and the “time of peak antinociception” value (rat [1]; intrathecal, all tested doses (2.4-6.0 IU/kg)) was 30 to 60 min. The “analgesia compared to intrathecal morphine” value (rat [1]; rat hot plate, intrathecal) was “dramatically improved analgesia”, the “analgesic effect over time” value (rat [2]) was “cumulative analgesic effect over time” and the hot plate latency (rat [2]) was “hot plate latency is increased”. For the same substance, the “Hot Plate Latency (Mean ± SEM)” value (rat [3]; 10.0 IU/kg (1.61 μg/kg) intravenous single, 0 hr (baseline)) was 12.03 ± 1.02 s, the “Hot Plate Latency (Mean ± SEM)” value (rat [3]; 10.0 IU/kg (1.61 μg/kg) intravenous single, 0.25 hr) was 11.95 ± 1.40 s and the “Hot Plate Latency (Mean ± SEM)” value (rat [3]; 10.0 IU/kg (1.61 μg/kg) intravenous single, 0.5 hr) was 15.64 ± 2.39 s. For the same substance, the “Hot Plate Latency (Mean ± SEM)” value (rat [3]; 10.0 IU/kg (1.61 μg/kg) intravenous single, 1 hr) was 14.95 ± 2.92 s, the “Hot Plate Latency (Mean ± SEM)” value (rat [3]; 10.0 IU/kg (1.61 μg/kg) intravenous single, 3 hr) was 14.11 ± 0.94 s and the “Hot Plate Latency (Mean ± SEM)” value (rat [3]; 10.0 IU/kg (1.61 μg/kg) intravenous single, 6 hr) was 10.45 ± 1.03 s. The “Hot Plate Latency (Mean ± SEM)” value (rat [3]; 10.0 IU/kg (1.61 μg/kg) intravenous single, 24 hr) was 8.86 ± 1.23 s, the “Hot Plate Latency (Mean ± SEM)” value (rat [3]; 30.0 IU/kg (4.83 μg/kg) intravenous single, 0 hr (baseline)) was 10.71 ± 1.02 s and the “Hot Plate Latency (Mean ± SEM)” value (rat [3]; 30.0 IU/kg (4.83 μg/kg) intravenous single, 0.25 hr) was 10.04 ± 0.96 s. For the same substance, the “Hot Plate Latency (Mean ± SEM)” value (rat [3]; 30.0 IU/kg (4.83 μg/kg) intravenous single, 0.5 hr) was 12.18 ± 1.22 s, the “Hot Plate Latency (Mean ± SEM)” value (rat [3]; 30.0 IU/kg (4.83 μg/kg) intravenous single, 1 hr) was 14.14 ± 1.14 s and the “Hot Plate Latency (Mean ± SEM)” value (rat [3]; 30.0 IU/kg (4.83 μg/kg) intravenous single, 3 hr) was 14.26 ± 1.39 s. The “Hot Plate Latency (Mean ± SEM)” value (rat [3]; 30.0 IU/kg (4.83 μg/kg) intravenous single, 6 hr) was 15.12 ± 2.20 s, the “Hot Plate Latency (Mean ± SEM)” value (rat [3]; 30.0 IU/kg (4.83 μg/kg) intravenous single, 24 hr) was 10.76 ± 1.25 s and the “Hot Plate Latency (Mean ± SEM)” value (rat [3]; 100.0 IU/kg (16.1 μg/kg) intravenous single, 0 hr (baseline)) was 13.53 ± 1.63 s. For the same substance, the “Hot Plate Latency (Mean ± SEM)” value (rat [3]; 100.0 IU/kg (16.1 μg/kg) intravenous single, 0.25 hr) was 11.05 ± 1.99 s, the “Hot Plate Latency (Mean ± SEM)” value (rat [3]; 100.0 IU/kg (16.1 μg/kg) intravenous single, 0.5 hr) was 9.63 ± 1.21 s and the “Hot Plate Latency (Mean ± SEM)” value (rat [3]; 100.0 IU/kg (16.1 μg/kg) intravenous single, 1 hr) was 11.20 ± 1.95 s. The “Hot Plate Latency (Mean ± SEM)” value (rat [3]; 100.0 IU/kg (16.1 μg/kg) intravenous single, 3 hr) was 14.76 ± 1.19 s, the “Hot Plate Latency (Mean ± SEM)” value (rat [3]; 100.0 IU/kg (16.1 μg/kg) intravenous single, 6 hr) was 14.00 ± 1.83 s and the “Hot Plate Latency (Mean ± SEM)” value (rat [3]; 100.0 IU/kg (16.1 μg/kg) intravenous single, 24 hr) was 14.30 ± 1.33 s. The “Hot Plate Latency (Mean ± SEM)” value (rat [3]; 300.0 IU/kg (48.3 μg/kg) intravenous single, 0 hr (baseline)) was 11.22 ± 0.38 s, the “Hot Plate Latency (Mean ± SEM)” value (rat [3]; 300.0 IU/kg (48.3 μg/kg) intravenous single, 0.25 hr) was 11.05 ± 3.82 s and the “Hot Plate Latency (Mean ± SEM)” value (rat [3]; 300.0 IU/kg (48.3 μg/kg) intravenous single, 0.5 hr) was 11.65 ± 2.31 s. For the same substance, the “Hot Plate Latency (Mean ± SEM)” value (rat [3]; 300.0 IU/kg (48.3 μg/kg) intravenous single, 1 hr) was 12.65 ± 2.09 s, the “Hot Plate Latency (Mean ± SEM)” value (rat [3]; 300.0 IU/kg (48.3 μg/kg) intravenous single, 3 hr) was 17.37 ± 4.25 s and the “Hot Plate Latency (Mean ± SEM)” value (rat [3]; 300.0 IU/kg (48.3 μg/kg) intravenous single, 6 hr) was 11.55 ± 2.80 s. The “Hot Plate Latency (Mean ± SEM)” value (rat [3]; 300.0 IU/kg (48.3 μg/kg) intravenous single, 24 hr) was 10.52 s, the “intravenous dose producing a hot plate latency similar to 1.6 IU/kg (0.25 μg/kg) intrathecal” value (rat [3]; at 0.5 hr) was 10.0 IU/kg and the “increase in hot plate latencies” value (rat [3]; intravenous, 10-300 IU/kg) was “only small increases in hot plate latencies”. The “time of peak effects” value (rat [3]; intravenous, 10 IU/kg) was 30 min, the dose response effect (rat [3]; intravenous, 10 to 300 IU/kg) was “No significant dose response effect was observed” and the “time of peak effects” value (rat [3]; intravenous, 30-300 IU/kg) was 180 to 360 min.
